Tests used:
Assay in all cases: PathHunter β-arrestin GpcrMAX assay
Assay type in all cases: cell-based
CMKLR1 = target: T1, CMKLR1 (Homo sapiens, UniProt Q99788)
T1 construct: purchased DiscoveRx (Eurofins) gpcrMAX PathHunter β-arrestin panel
Summary of the method: (§1)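 In this panel, β-arrestin coupling is detected by enzyme fragment complementation; taveuniamide F is profiled at 20 µM as potential agonist and antagonist.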

BDKRB1 = BDKRB1 (Homo sapiens, UniProt P46663)
Summary of the method: as §1

SSTR2 = target: T2, SSTR2 (Homo sapiens, UniProt P30874)
T2 construct: purchased DiscoveRx (Eurofins) gpcrMAX PathHunter β-arrestin panel
Summary of the method: as §1

EDG5 = target: T3, EDG5 (Homo sapiens, UniProt O95136)
T3 construct: purchased DiscoveRx (Eurofins) gpcrMAX PathHunter β-arrestin panel
Summary of the method: as §1

KISS1R = target: T4, KISS1R (Homo sapiens, UniProt Q969F8)
T4 construct: purchased DiscoveRx (Eurofins) gpcrMAX PathHunter β-arrestin panel
Summary of the method: as §1

MCHR1 = target: T5, MCHR1 (Homo sapiens, UniProt Q99705)
T5 construct: purchased DiscoveRx (Eurofins) gpcrMAX PathHunter β-arrestin panel
Summary of the method: as §1

GALR2 = target: T6, GALR2 (Homo sapiens, UniProt O43603)
T6 construct: purchased DiscoveRx (Eurofins) gpcrMAX PathHunter β-arrestin panel
Summary of the method: as §1

EDG3 = target: T7, EDG3 (Homo sapiens, UniProt Q99500)
T7 construct: purchased DiscoveRx (Eurofins) gpcrMAX PathHunter β-arrestin panel
Summary of the method: as §1

GLP2R = target: T8, GLP2R (Homo sapiens, UniProt O95838)
T8 construct: purchased DiscoveRx (Eurofins) gpcrMAX PathHunter β-arrestin panel
Summary of the method: as §1

CXCR2 = target: T9, CXCR2 (Homo sapiens, UniProt P25025)
T9 construct: purchased DiscoveRx (Eurofins) gpcrMAX PathHunter β-arrestin panel
Summary of the method: as §1

C3AR1 = C3AR1 (Homo sapiens, UniProt Q16581)
C3AR1, sequence (Q16581 whole entry): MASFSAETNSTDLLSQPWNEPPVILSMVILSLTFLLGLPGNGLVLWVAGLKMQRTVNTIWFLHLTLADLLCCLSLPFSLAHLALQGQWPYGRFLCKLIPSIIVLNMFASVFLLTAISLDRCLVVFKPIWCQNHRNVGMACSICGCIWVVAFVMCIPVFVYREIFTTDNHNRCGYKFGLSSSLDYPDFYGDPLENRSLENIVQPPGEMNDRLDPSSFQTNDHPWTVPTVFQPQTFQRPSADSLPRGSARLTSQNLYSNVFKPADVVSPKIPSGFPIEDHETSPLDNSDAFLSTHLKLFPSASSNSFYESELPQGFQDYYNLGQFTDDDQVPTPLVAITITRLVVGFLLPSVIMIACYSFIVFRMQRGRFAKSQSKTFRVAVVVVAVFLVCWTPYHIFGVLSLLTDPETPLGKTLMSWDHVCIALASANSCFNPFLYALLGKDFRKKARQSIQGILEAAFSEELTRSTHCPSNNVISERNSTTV
Summary of the method: as §1

CALCR-RAMP2 = CALCR-RAMP2 (Homo sapiens, UniProt O60895+P30988)
Summary of the method: as §1

GPR92 = target: T10, GPR92 (Homo sapiens, UniProt Q9H1C0)
T10 construct: purchased DiscoveRx (Eurofins) gpcrMAX PathHunter β-arrestin panel
Summary of the method: as §1

HCRTR2 = target: T11, HCRTR2 (Homo sapiens, UniProt O43614)
T11 construct: purchased DiscoveRx (Eurofins) gpcrMAX PathHunter β-arrestin panel
T11 sequence (O43614 whole entry): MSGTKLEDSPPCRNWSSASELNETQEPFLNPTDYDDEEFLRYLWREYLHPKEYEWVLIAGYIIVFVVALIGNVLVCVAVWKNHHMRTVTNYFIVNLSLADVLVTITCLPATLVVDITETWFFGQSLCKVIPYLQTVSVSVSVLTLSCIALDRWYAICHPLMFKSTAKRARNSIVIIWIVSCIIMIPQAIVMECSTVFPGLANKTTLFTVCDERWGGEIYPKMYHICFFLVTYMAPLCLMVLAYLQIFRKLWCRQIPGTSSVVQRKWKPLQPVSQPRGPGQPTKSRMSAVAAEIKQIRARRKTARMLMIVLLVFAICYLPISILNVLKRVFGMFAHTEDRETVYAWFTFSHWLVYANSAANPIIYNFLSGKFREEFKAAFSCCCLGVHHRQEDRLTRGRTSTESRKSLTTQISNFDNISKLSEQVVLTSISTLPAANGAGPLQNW
Summary of the method: as §1

LTB4R = target: T12, LTB4R (Homo sapiens, UniProt Q15722)
T12 construct: purchased DiscoveRx (Eurofins) gpcrMAX PathHunter β-arrestin panel
Summary of the method: as §1

SSTR3 = target: T13, SSTR3 (Homo sapiens, UniProt P32745)
T13 construct: purchased DiscoveRx (Eurofins) gpcrMAX PathHunter β-arrestin panel
Summary of the method: as §1

DRD3 = target: T14, DRD3 (Homo sapiens, UniProt P35462)
T14 construct: purchased DiscoveRx (Eurofins) gpcrMAX PathHunter β-arrestin panel
Summary of the method: as §1

UTR2 = target: T15, UTR2 (Homo sapiens, UniProt Q9UKP6)
T15 construct: purchased DiscoveRx (Eurofins) gpcrMAX PathHunter β-arrestin panel
T15 sequence (Q9UKP6 whole entry): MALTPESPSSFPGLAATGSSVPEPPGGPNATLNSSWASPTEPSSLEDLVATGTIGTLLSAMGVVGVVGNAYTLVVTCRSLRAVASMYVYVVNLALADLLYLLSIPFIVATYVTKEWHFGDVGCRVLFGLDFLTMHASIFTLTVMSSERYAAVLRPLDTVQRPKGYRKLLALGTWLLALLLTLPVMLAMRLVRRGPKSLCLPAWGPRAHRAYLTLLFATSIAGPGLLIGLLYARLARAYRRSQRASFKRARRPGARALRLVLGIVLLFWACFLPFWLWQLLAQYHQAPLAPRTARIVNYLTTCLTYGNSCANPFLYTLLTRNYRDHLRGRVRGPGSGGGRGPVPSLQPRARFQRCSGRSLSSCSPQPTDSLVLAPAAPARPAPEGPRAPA
Summary of the method: as §1

HCRTR1 = target: T16, HCRTR1 (Homo sapiens, UniProt O43613)
T16 construct: purchased DiscoveRx (Eurofins) gpcrMAX PathHunter β-arrestin panel
T16 sequence (O43613 whole entry): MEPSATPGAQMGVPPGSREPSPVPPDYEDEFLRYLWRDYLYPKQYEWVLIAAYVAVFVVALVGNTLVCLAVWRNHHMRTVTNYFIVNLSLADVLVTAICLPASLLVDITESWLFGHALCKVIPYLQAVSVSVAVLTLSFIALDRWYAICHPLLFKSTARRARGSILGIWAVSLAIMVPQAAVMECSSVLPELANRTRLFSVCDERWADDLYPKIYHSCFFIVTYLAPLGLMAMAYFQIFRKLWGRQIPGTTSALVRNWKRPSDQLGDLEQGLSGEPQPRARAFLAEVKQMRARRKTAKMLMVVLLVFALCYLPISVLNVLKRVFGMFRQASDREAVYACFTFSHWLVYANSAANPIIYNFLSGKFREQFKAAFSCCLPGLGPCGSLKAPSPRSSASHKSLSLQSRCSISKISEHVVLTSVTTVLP
Summary of the method: as §1

HTR1A = target: T17, HTR1A (Homo sapiens, UniProt P08908)
T17 construct: purchased DiscoveRx (Eurofins) gpcrMAX PathHunter β-arrestin panel
Summary of the method: as §1

ADORA3 = target: T18, ADORA3 (Homo sapiens, UniProt P0DMS8)
T18 construct: purchased DiscoveRx (Eurofins) gpcrMAX PathHunter β-arrestin panel
T18 sequence (P0DMS8 whole entry): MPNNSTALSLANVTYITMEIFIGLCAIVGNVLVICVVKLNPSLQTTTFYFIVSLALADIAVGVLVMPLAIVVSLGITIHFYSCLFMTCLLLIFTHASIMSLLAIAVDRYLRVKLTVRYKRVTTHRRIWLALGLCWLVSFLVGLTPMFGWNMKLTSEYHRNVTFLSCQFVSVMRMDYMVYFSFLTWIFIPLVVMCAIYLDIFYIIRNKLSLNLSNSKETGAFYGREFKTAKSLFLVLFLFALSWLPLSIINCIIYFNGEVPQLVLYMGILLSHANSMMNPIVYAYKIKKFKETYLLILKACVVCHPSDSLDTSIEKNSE
Summary of the method: as §1

OPRM1 = target: T19, OPRM1 (Homo sapiens, UniProt P35372)
T19 construct: purchased DiscoveRx (Eurofins) gpcrMAX PathHunter β-arrestin panel
Summary of the method: as §1

P2RY12 = target: T20, P2RY12 (Homo sapiens, UniProt Q9H244)
T20 construct: purchased DiscoveRx (Eurofins) gpcrMAX PathHunter β-arrestin panel
T20 sequence (Q9H244 whole entry, one chain of several): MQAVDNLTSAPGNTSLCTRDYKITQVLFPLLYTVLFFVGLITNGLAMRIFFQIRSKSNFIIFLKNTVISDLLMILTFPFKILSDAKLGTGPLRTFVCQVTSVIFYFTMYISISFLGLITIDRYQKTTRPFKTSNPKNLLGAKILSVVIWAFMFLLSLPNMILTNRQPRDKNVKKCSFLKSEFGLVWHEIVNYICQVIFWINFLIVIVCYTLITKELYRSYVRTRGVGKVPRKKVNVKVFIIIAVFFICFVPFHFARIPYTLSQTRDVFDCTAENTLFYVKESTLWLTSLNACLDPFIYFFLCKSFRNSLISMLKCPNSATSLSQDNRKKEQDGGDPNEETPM
Summary of the method: as §1

OPRL1 = target: T21, OPRL1 (Homo sapiens, UniProt P41146)
T21 construct: purchased DiscoveRx (Eurofins) gpcrMAX PathHunter β-arrestin panel
Summary of the method: as §1

VIPR2 = target: T22, VIPR2 (Homo sapiens, UniProt P41587)
T22 construct: purchased DiscoveRx (Eurofins) gpcrMAX PathHunter β-arrestin panel
Summary of the method: as §1

NTSR1 = target: T23, NTSR1 (Homo sapiens, UniProt P30989)
T23 construct: purchased DiscoveRx (Eurofins) gpcrMAX PathHunter β-arrestin panel
Summary of the method: as §1

GPR1 = target: T24, GPR1 (Homo sapiens, UniProt P46091)
T24 construct: purchased DiscoveRx (Eurofins) gpcrMAX PathHunter β-arrestin panel
T24 sequence (P46091 whole entry): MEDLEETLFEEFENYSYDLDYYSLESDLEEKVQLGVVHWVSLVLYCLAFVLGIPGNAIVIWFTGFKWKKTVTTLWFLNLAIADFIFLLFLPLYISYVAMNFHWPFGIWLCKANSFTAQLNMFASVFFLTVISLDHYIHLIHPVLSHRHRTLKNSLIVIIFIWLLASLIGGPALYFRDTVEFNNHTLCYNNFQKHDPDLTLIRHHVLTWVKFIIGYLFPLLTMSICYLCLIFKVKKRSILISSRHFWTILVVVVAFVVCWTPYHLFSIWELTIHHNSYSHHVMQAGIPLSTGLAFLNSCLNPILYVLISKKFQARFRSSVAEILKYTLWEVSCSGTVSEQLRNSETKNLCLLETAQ
Summary of the method: as §1

F2RL3 = target: T25, F2RL3 (Homo sapiens, UniProt Q96RI0)
T25 construct: purchased DiscoveRx (Eurofins) gpcrMAX PathHunter β-arrestin panel
T25 sequence (Q96RI0 18-385): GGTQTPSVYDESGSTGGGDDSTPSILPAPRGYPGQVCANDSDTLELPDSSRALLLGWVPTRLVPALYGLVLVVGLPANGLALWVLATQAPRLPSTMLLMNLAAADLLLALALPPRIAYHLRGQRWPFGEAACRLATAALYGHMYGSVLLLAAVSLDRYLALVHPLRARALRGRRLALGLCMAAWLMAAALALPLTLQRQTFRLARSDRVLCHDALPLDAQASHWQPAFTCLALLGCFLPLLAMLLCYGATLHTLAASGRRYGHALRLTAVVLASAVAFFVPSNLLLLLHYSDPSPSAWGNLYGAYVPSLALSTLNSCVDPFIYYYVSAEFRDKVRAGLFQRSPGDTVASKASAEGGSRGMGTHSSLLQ
Summary of the method: as §1

MRGPRX2 = target: T26, MRGPRX2 (Homo sapiens, UniProt Q96LB1)
T26 construct: purchased DiscoveRx (Eurofins) gpcrMAX PathHunter β-arrestin panel
Summary of the method: as §1

PTGIR = target: T27, PTGIR (Homo sapiens, UniProt P43119)
T27 construct: purchased DiscoveRx (Eurofins) gpcrMAX PathHunter β-arrestin panel
T27 sequence (P43119 whole entry): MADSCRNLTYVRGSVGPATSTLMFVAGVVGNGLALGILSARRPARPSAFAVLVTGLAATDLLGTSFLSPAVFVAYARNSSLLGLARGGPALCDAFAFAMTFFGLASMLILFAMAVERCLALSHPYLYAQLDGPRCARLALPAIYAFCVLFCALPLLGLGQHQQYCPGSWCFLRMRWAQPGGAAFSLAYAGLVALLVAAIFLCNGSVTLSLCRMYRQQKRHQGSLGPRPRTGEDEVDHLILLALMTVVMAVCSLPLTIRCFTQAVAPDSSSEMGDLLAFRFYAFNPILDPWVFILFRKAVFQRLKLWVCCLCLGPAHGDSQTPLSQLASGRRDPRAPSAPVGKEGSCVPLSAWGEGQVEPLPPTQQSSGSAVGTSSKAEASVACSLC
Summary of the method: as §1

SSTR1 = target: T28, SSTR1 (Homo sapiens, UniProt P30872)
T28 construct: purchased DiscoveRx (Eurofins) gpcrMAX PathHunter β-arrestin panel
T28 sequence (P30872 whole entry): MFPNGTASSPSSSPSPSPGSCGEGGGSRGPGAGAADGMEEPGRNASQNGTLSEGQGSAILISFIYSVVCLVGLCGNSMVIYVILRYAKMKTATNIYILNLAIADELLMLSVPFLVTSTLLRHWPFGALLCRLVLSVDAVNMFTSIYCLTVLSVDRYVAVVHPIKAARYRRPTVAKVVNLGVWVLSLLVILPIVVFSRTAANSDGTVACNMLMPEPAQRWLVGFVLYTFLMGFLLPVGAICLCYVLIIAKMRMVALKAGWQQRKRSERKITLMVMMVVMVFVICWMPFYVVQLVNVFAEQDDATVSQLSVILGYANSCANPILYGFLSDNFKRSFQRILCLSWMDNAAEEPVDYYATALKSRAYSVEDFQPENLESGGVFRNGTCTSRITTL
Summary of the method: as §1

NPY1R = target: T29, NPY1R (Homo sapiens, UniProt P25929)
T29 construct: purchased DiscoveRx (Eurofins) gpcrMAX PathHunter β-arrestin panel
Summary of the method: as §1

SSTR5 = target: T30, SSTR5 (Homo sapiens, UniProt P35346)
T30 construct: purchased DiscoveRx (Eurofins) gpcrMAX PathHunter β-arrestin panel
Summary of the method: as §1

CALCRL-RAMP3 = CALCRL-RAMP3 (Homo sapiens, UniProt O60896+Q16602)
Summary of the method: as §1

P2RY4 = target: T31, P2RY4 (Homo sapiens, UniProt P51582)
T31 construct: purchased DiscoveRx (Eurofins) gpcrMAX PathHunter β-arrestin panel
Summary of the method: as §1

C5L2 = C5L2 (Homo sapiens, UniProt Q9P296)
C5L2, sequence (Q9P296 whole entry): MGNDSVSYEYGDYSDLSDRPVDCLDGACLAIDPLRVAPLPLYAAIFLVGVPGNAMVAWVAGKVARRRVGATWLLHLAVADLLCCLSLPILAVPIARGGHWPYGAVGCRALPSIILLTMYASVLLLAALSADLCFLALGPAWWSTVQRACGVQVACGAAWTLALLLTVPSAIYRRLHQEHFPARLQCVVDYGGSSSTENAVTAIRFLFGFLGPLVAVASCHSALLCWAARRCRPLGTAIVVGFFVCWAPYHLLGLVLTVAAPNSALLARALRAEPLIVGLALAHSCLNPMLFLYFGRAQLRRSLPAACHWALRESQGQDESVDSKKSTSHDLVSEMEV
Summary of the method: as §1

NPY2R = target: T32, NPY2R (Homo sapiens, UniProt P49146)
T32 construct: purchased DiscoveRx (Eurofins) gpcrMAX PathHunter β-arrestin panel
Summary of the method: as §1

MLNR = target: T33, MLNR (Homo sapiens, UniProt O43193)
T33 construct: purchased DiscoveRx (Eurofins) gpcrMAX PathHunter β-arrestin panel
Summary of the method: as §1

ADCYAP1R1 = target: T34, ADCYAP1R1 (Homo sapiens, UniProt P41586)
T34 construct: purchased DiscoveRx (Eurofins) gpcrMAX PathHunter β-arrestin panel
Summary of the method: as §1

CX3CR1 = target: T35, CX3CR1 (Homo sapiens, UniProt P49238)
T35 construct: purchased DiscoveRx (Eurofins) gpcrMAX PathHunter β-arrestin panel
Summary of the method: as §1

GLP1R = target: T36, GLP1R (Homo sapiens, UniProt P43220)
T36 construct: purchased DiscoveRx (Eurofins) gpcrMAX PathHunter β-arrestin panel
Summary of the method: as §1

ADRB1 = target: T37, ADRB1 (Homo sapiens, UniProt P08588)
T37 construct: purchased DiscoveRx (Eurofins) gpcrMAX PathHunter β-arrestin panel
T37 sequence (P08588 whole entry): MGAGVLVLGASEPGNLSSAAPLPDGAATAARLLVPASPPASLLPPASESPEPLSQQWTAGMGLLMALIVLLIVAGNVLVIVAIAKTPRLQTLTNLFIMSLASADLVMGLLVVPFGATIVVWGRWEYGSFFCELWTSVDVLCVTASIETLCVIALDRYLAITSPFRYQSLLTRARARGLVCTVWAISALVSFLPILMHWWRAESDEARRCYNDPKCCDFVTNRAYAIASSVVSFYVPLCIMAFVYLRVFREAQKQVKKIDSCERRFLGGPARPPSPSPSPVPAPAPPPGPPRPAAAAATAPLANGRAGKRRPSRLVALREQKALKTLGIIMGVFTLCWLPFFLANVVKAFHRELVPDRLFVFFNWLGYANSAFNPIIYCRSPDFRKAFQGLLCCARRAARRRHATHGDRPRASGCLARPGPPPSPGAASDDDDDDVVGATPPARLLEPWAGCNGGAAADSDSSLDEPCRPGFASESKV
Summary of the method: as §1

inhibition at 20 µM (CMKLR1): 21.4% | inhibition at 20 µM (BDKRB1): 26.2% | inhibition at 20 µM (SSTR2): -0.1% | inhibition at 20 µM (EDG5): 0.8% | inhibition at 20 µM (KISS1R): 31.5% | inhibition at 20 µM (MCHR1): 16.3% | inhibition at 20 µM (GALR2): 23.1% | inhibition at 20 µM (EDG3): 21% | inhibition at 20 µM (GLP2R): 20.4% | inhibition at 20 µM (CXCR2): 20.5% | inhibition at 20 µM (C3AR1): 10.3% | inhibition at 20 µM (CALCR-RAMP2): 58.6% | inhibition at 20 µM (GPR92): 56.5% | inhibition at 20 µM (HCRTR2): 11.6% | inhibition at 20 µM (LTB4R): 4.6% | inhibition at 20 µM (SSTR3): 41.3% | inhibition at 20 µM (DRD3): 9.6% | inhibition at 20 µM (UTR2): 17.7% | inhibition at 20 µM (HCRTR1): 44.9% | inhibition at 20 µM (HTR1A): 15.2% | inhibition at 20 µM (ADORA3): 1% | inhibition at 20 µM (OPRM1): -1% | inhibition at 20 µM (P2RY12): 1.4% | inhibition at 20 µM (OPRL1): 5.4% | inhibition at 20 µM (VIPR2): 4.6% | inhibition at 20 µM (NTSR1): 18.8% | inhibition at 20 µM (GPR1): 18.7% | inhibition at 20 µM (F2RL3): 59.2% | inhibition at 20 µM (MRGPRX2): 64.7% | inhibition at 20 µM (PTGIR): 60.2% | inhibition at 20 µM (SSTR1): 38.2% | inhibition at 20 µM (NPY1R): 3.4% | inhibition at 20 µM (SSTR5): 2.4% | inhibition at 20 µM (CALCRL-RAMP3): 19.3% | inhibition at 20 µM (P2RY4): 68.8% | inhibition at 20 µM (C5L2): 24.1% | inhibition at 20 µM (NPY2R): 0.5% | inhibition at 20 µM (MLNR): 53.1% | inhibition at 20 µM (ADCYAP1R1): 16.5% | inhibition at 20 µM (CX3CR1): 35.6% | inhibition at 20 µM (GLP1R): 59.9% | inhibition at 20 µM (ADRB1): 52.7%
Compound: CC(=O)N[C@@H](CCCC#C/C=C/Cl)CCCCCCC(Cl)Cl [Compound 4, taveuniamide F]
